Reference: patent publication US9212134B2, “Inhibitors of viral entry into mammalian cells” (priority 2010, dated 2015)
Entries after “also recorded” stand apart in the source; their conditions may differ.

Tests used:
[1] = system: Pseudotype ebola virus; assay: microbe, parasite or virus in culture; type: cell-based; settings: Zaire ebolavirus, read-out: % inhibition @ 25 μM EBOV
[2] = system: HIV/HA (H5) pseudotype virus; assay: organism not typed; type: cell-based, influenza A virus H5N1; settings: for inhibition at 25 µM: A549, read-out: % inhibition @ 25 μM influenza
[3] = system: HIV/VSV-G pseudotype virus; assay: organism not typed; type: cell-based, vesicular stomatitis virus; settings: for inhibition at 25 µM: read-out: % inhibition @ 25 μM VSV
[4] = system: cell viability (endogenous cellular GAPDH); assay: Cell viability, AlphaScreen SureFire GAPDH assay; settings: cytotoxicity
[5] = system: HIV/MLV pseudotype virus; type: cell-based
[6] = system: Influenza H1N1 (PR8); type: cell-based, influenza virus H1N1 (PR8)
[7] = system: HIV/HA (H7) pseudotype virus; type: cell-based, influenza virus (H7)
[8] = system: Influenza A virus [A/WS/33]; assay: Plaque assay of influenza A virus A/WS/33 on MDCK cells; type: cell-based, influenza A virus A/WS/33 (H1N1); settings: 25-200 nM (FIG. 7)
[9] = system: HIV/HA pseudotype virus; type: cell-based, influenza A virus H5N1

Compound | inhibition at 25 µM [1] | inhibition at 25 µM [2] | inhibition at 25 µM [3] | IC50 [2] | CC50 [4] | further results
CCOc1ccc(N(C(C)C(=O)Nc2cccc(C(F)(F)F)c2)S(C)(=O)=O)cc1 (centres unmarked) [Compound 11982_F11] | 25% | 87% | 73% |  |  | 
COc1ccc(NC(=O)CN(c2ccccc2Cl)S(=O)(=O)c2ccc(C)cc2)c(OC)c1 [Compound 23] |  |  |  | > 100 µM | > 100 µM | 
COC(=O)c1ccccc1NC(=O)CN(c1ccc(C)cc1)S(=O)(=O)c1ccccc1 [Compound 30636_C03] | 87% | 26% | 42% |  |  | 
COc1ccc(N(CC(=O)Nc2ccccc2SC)S(=O)(=O)c2ccc(F)cc2)cc1 [Compound 12794_H03] | 100% | 47% | 77% |  |  | 
CCc1ccc(N(CC(=O)Nc2ccc(Oc3ccccc3)cc2)S(C)(=O)=O)cc1 [Compound 12066_B08] | 31% | 98% | 24% |  |  | 
COc1ccc(N(CC(=O)Nc2ccccc2-c2ccccc2)S(=O)(=O)c2ccc(F)cc2)cc1 [Compound 12838_B07] | 99% | 46% | 77% |  |  | 
COc1cccc(N(CC(=O)Nc2ccc(CSc3ccccc3)cc2)S(C)(=O)=O)c1 [Compound 11997_F05] | 41% | 100% | 51% |  |  | 
COc1ccc(S(=O)(=O)N(CC(=O)Nc2ccc(F)c(Cl)c2)c2ccccc2)cc1 [Compound 12078_D04] | 87% | 40% | 60% |  |  | 
O=C(CN(c1ccc(Cl)cc1Cl)S(=O)(=O)c1ccccc1)Nc1ccccc1F [Compound 6] |  |  |  | 5.3 µM | > 25 µM | 
Cc1ccc(S(=O)(=O)N(CC(=O)Nc2cccc(C)c2)c2ccccc2Cl)cc1 [Compound 22] |  |  |  | > 100 µM | > 100 µM | 
O=C(CN(c1ccccc1F)S(=O)(=O)c1ccccc1)Nc1cccc(C(F)(F)F)c1 [Compound 30656_D10] | 31% | 87% | 59% |  |  | 
COc1cccc(NC(=O)CN(c2ccc(Cl)cc2C)S(=O)(=O)c2ccc(C)cc2)c1 [Compound 15] |  |  |  | > 100 µM | 43.4 µM | 
COc1ccc(N(CC(=O)Nc2ccccc2C)S(=O)(=O)c2ccccc2)cc1 [Compound 11] |  |  |  | > 100 µM | > 100 µM | 
COc1ccc(NC(=O)CN(c2cccc(Cl)c2)S(=O)(=O)c2ccccc2)c(OC)c1 [Compound 18] |  |  |  | > 100 µM | > 100 µM | 
COc1ccc(N(CC(=O)Nc2c(OC)cccc2OC)S(=O)(=O)c2ccccc2)cc1 [Compound 13] |  |  |  | > 100 µM | > 100 µM | 
Cc1ccc(N(CC(=O)Nc2ccccc2C(C)C)S(C)(=O)=O)cc1 [Compound 12402_E03] | 85% | 47% | 22% |  |  | 
COc1ccc(S(=O)(=O)N(CC(=O)Nc2ccc(F)cc2F)c2ccc(Cl)cc2)cc1 [Compound 12079_A05] | 86% | 19% | 0% |  |  | 
O=C(CN(c1ccc(Cl)cc1Cl)S(=O)(=O)c1ccccc1)Nc1ccccc1F [Compound 2] |  |  |  |  |  | IC90 [5]: 99 µM; IC50 [6]: 5.2 µM; IC90 [7]: > 100 µM; IC90 [2]: 3.9 µM; IC90 [3]: > 100 µM
COc1ccc(OC)c(NC(=O)CN(c2ccccc2Cl)S(=O)(=O)c2ccc(C)cc2)c1 [Compound 21] |  |  |  | > 100 µM | > 100 µM | 
COc1ccc(Cl)cc1NC(=O)CN(c1cccc(Cl)c1Cl)S(C)(=O)=O [Compound 12021_B02] | 0% | 87% | 70% |  |  | 
COc1ccc(OC)c(N(CC(=O)Nc2ccc(Cl)cc2)S(=O)(=O)c2ccc(C)cc2)c1 [Compound 8] |  |  |  | > 100 µM | > 100 µM | 
COc1ccc(N(CC(=O)Nc2ccccc2F)S(=O)(=O)c2ccccc2)cc1Cl [Compound 12441_B08] | 98% | 33% | 7% |  |  | 
COc1ccc(S(=O)(=O)N(CC(=O)Nc2ccccc2SC)c2ccc(Cl)cc2)cc1 [Compound 12794_B09] | 100% | 0% | 63% |  |  | 

Compound | inhibition at 25 µM [1] | inhibition at 25 µM [2] | inhibition at 25 µM [3] | IC50 [2] | CC50 [4] | further results
COc1ccc(Cl)cc1N(CC(=O)Nc1ccc(F)cc1F)S(=O)(=O)c1ccc(C)cc1 [Compound 12096_A08] | 38% | 88% | 42% |  |  | 
COc1ccccc1N(CC(=O)Nc1cccc(C)c1C)S(=O)(=O)c1ccccc1 [Compound 14] |  |  |  | > 100 µM | > 100 µM | 
Cc1cccc(C)c1NC(=O)CN(c1ccccc1Cl)S(=O)(=O)c1ccccc1 [Compound 20] |  |  |  | > 100 µM | > 100 µM | 
COc1ccc(S(=O)(=O)N(CC(=O)Nc2cccc3ccccc23)c2ccc(Cl)cc2)cc1 [Compound 12308_B02] | 96% | 46% | 23% |  |  | 
O=C(CN(c1ccc(Cl)cc1Cl)S(=O)(=O)c1ccccc1)Nc1ccc(F)cc1 [Compound 10] |  |  |  | 25 µM | 50.5 µM | 
COc1ccccc1NC(=O)CN(c1ccc(Cl)cc1C)S(C)(=O)=O [Compound 12078_B05] | 42% | 96% | 36% |  |  | 
COc1cccc(N(CC(=O)Nc2cc(Cl)cc(Cl)c2)S(=O)(=O)c2ccccc2)c1 [Compound 7] |  |  |  | 18.5 µM | 31.5 µM | 
Cc1ccc(S(=O)(=O)N(CC(=O)Nc2ccccc2C(F)(F)F)c2ccc(F)cc2)cc1 [Compound 12440_F06] | 93% | 46% | 45% |  |  | 
O=C(CN(c1ccc(Cl)c(Cl)c1)S(=O)(=O)c1ccccc1)Nc1ccccc1 [Compound 9] |  |  |  | 20 µM | 42 µM | 
CO/C1=C\C(C)=C\[C@@H](C)[C@@H](O)[C@@H](C)C/C(C)=C/C=C/[C@H](OC)[C@@H]([C@@H](C)[C@@H](O)[C@H](C)[C@@]2(O)C[C@@H](O)[C@H](C)[C@@H](C(C)C)O2)OC1=O [bafilomycin A] |  |  |  |  |  | inhibition of infectivity of influenza virus infection [8]: efficiently inhibited the infectivity; inhibition of infectivity of HIV/HA pseudotype virus [9]: efficiently inhibited the infectivity; also recorded: prevented HIV/HA infection
O=C(CN(c1cccc(Cl)c1)S(=O)(=O)c1ccccc1)Nc1ccccc1Cl [Compound 19] |  |  |  | > 100 µM | 90.3 µM | 
COc1ccc(S(=O)(=O)N(CC(=O)Nc2cccc3ccccc23)c2ccc(C)cc2)cc1 [Compound 12305_B04] | 85% | 47% | 0% |  |  | 
Cc1cccc(C)c1NC(=O)CN(c1cccc(Cl)c1)S(=O)(=O)c1ccccc1 [Compound 17] |  |  |  | > 100 µM | > 100 µM | 
CCOc1ccccc1NC(=O)CN(c1cc(Cl)ccc1Cl)S(C)(=O)=O [Compound 12110_D02] | 0% | 90% | 2% |  |  | 
CS(=O)(=O)N(CC(=O)Nc1ccccc1F)c1cc(C(F)(F)F)ccc1Cl [Compound 12020_E02] | 43% | 86% | 68% |  |  | 
COc1ccc(NC(=O)CN(c2ccc(Cl)cc2)S(=O)(=O)c2ccc(C)cc2)cc1 [Compound 16] |  |  |  | > 100 µM | > 100 µM | 
COC(=O)c1ccccc1NC(=O)CN(c1ccc(C)cc1)S(=O)(=O)c1ccc(OC)cc1 [Compound 11978_G07] | 89% | 22% | 29% |  |  | 
COc1ccc(N(CC(=O)Nc2ccc(F)cc2)S(=O)(=O)c2ccccc2)cc1 [Compound 12] |  |  |  | > 100 µM | > 100 µM | 
Cl.N [NH4Cl, ammonium chloride] |  |  |  |  |  | reduction of HIV/HA virus infection [9]: significantly reduced the virus infection
Cc1c(Cl)cccc1NC(=O)CN(c1ccc(I)cc1)S(C)(=O)=O [Compound 12076_B09] | 48% | 86% | 21% |  |  | 
CCc1ccccc1N(CC(=O)Nc1cccc(F)c1)S(C)(=O)=O [Compound 12112_H02] | 0% | 86% | 0% |  |  | 
Cc1cccc(NC(=O)CN(c2cccc(Cl)c2Cl)S(C)(=O)=O)c1 [Compound 11998_D06] | 0% | 88% | 0% |  |  | 
